Measured values as given in the NIST ThermoML archive (doi:10.1021/je400055v).

Conditions: Liquid, Vibrating tube method

CCCCCCCCCCC [undecane]
mass density [kg/m3]
Conditions | 313.15 K | 323.1 K | 333.02 K | 342.09 K | 352.93 K | 362.91 K
1000 kPa | 726.6 | 719 | 711.3 | 703.9 | 696.5 | 688.8
2000 kPa | – | 719.8 | – | 704.8 | 697.4 | –
2001 kPa | 727.3 | – | 712.1 | – | – | 689.9
3000 kPa | – | 720.6 | 713 | – | – | 691
3001 kPa | 728 | – | – | 705.8 | 698.4 | –
4000 kPa | 728.7 | 721.4 | 713.8 | 706.7 | 699.4 | 692
5000 kPa | 729.5 | – | 714.7 | 707.6 | 700.4 | –
5001 kPa | – | 722.2 | – | – | – | 693.1
6000 kPa | – | 723 | 715.5 | 708.5 | 701.4 | –
6001 kPa | 730.2 | – | – | – | – | 694.1
7000 kPa | 731 | 723.8 | 716.4 | 709.4 | – | –
7001 kPa | – | – | – | – | 702.3 | 695.2
8000 kPa | 731.8 | 724.6 | – | 710.4 | 703.3 | 696.2
8001 kPa | – | – | 717.3 | – | – | –
9000 kPa | 732.6 | 725.5 | 718.1 | 711.2 | 704.3 | 697.2
10000 kPa | 733.4 | – | 719 | 712.2 | – | 698.2
10001 kPa | – | 726.3 | – | – | 705.2 | –
11000 kPa | 734.1 | 727.1 | 719.9 | 713.1 | 706.2 | 699.2
12000 kPa | 734.9 | 727.9 | 720.7 | 714 | 707.1 | –
12001 kPa | – | – | – | – | – | 700.2
13000 kPa | 735.7 | 728.7 | 721.5 | 714.8 | 708 | 701.1
14000 kPa | – | 729.5 | 722.4 | 715.7 | 709 | –
14001 kPa | 736.4 | – | – | – | – | 702.1
15000 kPa | 737.2 | – | 723.2 | 716.6 | 709.8 | –
15001 kPa | – | 730.3 | – | – | – | 703
16000 kPa | 737.9 | 731.1 | 724 | 717.4 | 710.7 | –
16001 kPa | – | – | – | – | – | 704
17000 kPa | 738.7 | 731.9 | 724.8 | 718.2 | 711.6 | –
17001 kPa | – | – | – | – | – | 704.9
18000 kPa | 739.4 | 732.6 | 725.6 | 719.1 | 712.5 | 705.8
19000 kPa | 740 | 733.3 | 726.3 | 719.9 | 713.3 | –
19001 kPa | – | – | – | – | – | 706.6
20000 kPa | 740.7 | 734 | 727.1 | 720.6 | 714.1 | 707.5
21000 kPa | – | 734.7 | 727.8 | 721.4 | 715 | 708.4
21001 kPa | 741.3 | – | – | – | – | –
22000 kPa | 742 | 735.4 | 728.5 | 722.2 | 715.7 | 709.2
23000 kPa | 742.6 | 736 | 729.2 | 722.9 | 716.5 | 710
23999 kPa | – | – | – | 723.6 | – | –
24000 kPa | 743.2 | 736.7 | 729.9 | – | 717.3 | 710.9
25000 kPa | 743.7 | 737.3 | 730.5 | 724.3 | 718 | 711.6
